US12415816B2, “Benzothiazole derivatives and 7-aza-benzothiazole derivatives as janus kinase 2 inhibitors and uses thereof” (Dana-Farber Cancer Institute, Inc., priority 2018, dated 2025)

Tests used:
[1] = biological target: JAK2 (Homo sapiens (Human), UniProt O60674); assay: JAK2 Z-Lyte biochemical assay; conditions: commercial JAK2 Z-Lyte assay from Invitrogen
Experimental: The JAK2 Z-Lyte biochemical assay was performed according to manufacturer's instructions (Life Technologies).

[2] = biological target: ABL1(Q252H) (Homo sapiens (Human), UniProt P00519, Q252H); assay: KINOMEscan kinase selectivity profiling; format: binding; conditions: read-out: Ambit KINOMEscan of compound I-5 at 10 μM (percent control %)
[3] = biological target: ABL1(T315I) (Homo sapiens (Human), UniProt P00519, T315I); assay: KINOMEscan kinase selectivity profiling; format: binding; conditions: read-out: Ambit KINOMEscan of compound I-5 at 10 μM (percent control %)
[4] = biological target: ABL2 (Homo sapiens (Human), UniProt P42684); assay: KINOMEscan kinase selectivity profiling; format: binding; conditions: read-out: Ambit KINOMEscan of compound I-5 at 10 μM (percent control %)
[5] = biological target: BRAF(V600E) (Homo sapiens (Human), UniProt P15056, V600E); assay: KINOMEscan kinase selectivity profiling; format: binding; conditions: read-out: Ambit KINOMEscan of compound I-5 at 10 μM (percent control %)
[6] = biological target: CDC2L2 (Homo sapiens (Human), UniProt Q9UQ88); assay: KINOMEscan kinase selectivity profiling; format: binding; conditions: read-out: Ambit KINOMEscan of compound I-5 at 10 μM (percent control %)
[7] = biological target: CDKL3 (Homo sapiens (Human), UniProt Q8IVW4); assay: KINOMEscan kinase selectivity profiling; format: binding; conditions: read-out: Ambit KINOMEscan of compound I-5 at 10 μM (percent control %)
[8] = biological target: CIT (Homo sapiens (Human), UniProt O14578); assay: KINOMEscan kinase selectivity profiling; format: binding; conditions: read-out: Ambit KINOMEscan of compound I-5 at 10 μM (percent control %)
[9] = biological target: CSF1R (Homo sapiens (Human), UniProt P07333); assay: KINOMEscan kinase selectivity profiling; format: binding; conditions: read-out: Ambit KINOMEscan of compound I-5 at 10 μM (percent control %)
Sequence of CSF1R (P07333 20-972): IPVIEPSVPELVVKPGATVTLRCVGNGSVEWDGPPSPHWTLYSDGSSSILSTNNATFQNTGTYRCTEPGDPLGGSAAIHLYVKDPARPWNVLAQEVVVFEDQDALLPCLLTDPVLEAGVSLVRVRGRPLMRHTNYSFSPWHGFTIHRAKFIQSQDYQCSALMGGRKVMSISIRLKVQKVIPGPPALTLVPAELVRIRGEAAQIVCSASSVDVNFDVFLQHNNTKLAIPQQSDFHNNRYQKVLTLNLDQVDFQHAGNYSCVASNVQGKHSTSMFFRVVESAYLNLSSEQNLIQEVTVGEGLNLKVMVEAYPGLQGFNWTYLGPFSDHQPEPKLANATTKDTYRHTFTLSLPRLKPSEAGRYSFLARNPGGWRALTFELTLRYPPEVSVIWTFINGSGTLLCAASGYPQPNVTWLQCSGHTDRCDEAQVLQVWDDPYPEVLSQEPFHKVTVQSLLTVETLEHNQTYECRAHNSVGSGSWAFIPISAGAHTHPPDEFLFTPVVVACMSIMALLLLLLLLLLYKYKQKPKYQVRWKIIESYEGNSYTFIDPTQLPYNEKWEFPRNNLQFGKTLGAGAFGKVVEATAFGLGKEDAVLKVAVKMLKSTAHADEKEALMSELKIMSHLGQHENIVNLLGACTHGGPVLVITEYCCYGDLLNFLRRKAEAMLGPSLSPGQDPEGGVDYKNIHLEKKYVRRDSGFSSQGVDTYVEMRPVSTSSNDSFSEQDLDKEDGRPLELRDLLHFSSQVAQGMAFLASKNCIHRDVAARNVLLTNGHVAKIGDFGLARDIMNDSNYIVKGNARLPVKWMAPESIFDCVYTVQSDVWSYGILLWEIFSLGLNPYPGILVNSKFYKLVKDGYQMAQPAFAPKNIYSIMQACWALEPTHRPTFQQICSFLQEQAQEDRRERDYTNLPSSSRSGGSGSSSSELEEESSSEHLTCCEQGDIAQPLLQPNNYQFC

[10] = biological target: EPHA4 (Homo sapiens (Human), UniProt P54764); assay: KINOMEscan kinase selectivity profiling; format: binding; conditions: read-out: Ambit KINOMEscan of compound I-5 at 10 μM (percent control %)
[11] = biological target: EPHA6 (Homo sapiens (Human), UniProt Q9UF33); assay: KINOMEscan kinase selectivity profiling; format: binding; conditions: read-out: Ambit KINOMEscan of compound I-5 at 10 μM (percent control %)
Sequence of EPHA6 (Q9UF33 23-1036): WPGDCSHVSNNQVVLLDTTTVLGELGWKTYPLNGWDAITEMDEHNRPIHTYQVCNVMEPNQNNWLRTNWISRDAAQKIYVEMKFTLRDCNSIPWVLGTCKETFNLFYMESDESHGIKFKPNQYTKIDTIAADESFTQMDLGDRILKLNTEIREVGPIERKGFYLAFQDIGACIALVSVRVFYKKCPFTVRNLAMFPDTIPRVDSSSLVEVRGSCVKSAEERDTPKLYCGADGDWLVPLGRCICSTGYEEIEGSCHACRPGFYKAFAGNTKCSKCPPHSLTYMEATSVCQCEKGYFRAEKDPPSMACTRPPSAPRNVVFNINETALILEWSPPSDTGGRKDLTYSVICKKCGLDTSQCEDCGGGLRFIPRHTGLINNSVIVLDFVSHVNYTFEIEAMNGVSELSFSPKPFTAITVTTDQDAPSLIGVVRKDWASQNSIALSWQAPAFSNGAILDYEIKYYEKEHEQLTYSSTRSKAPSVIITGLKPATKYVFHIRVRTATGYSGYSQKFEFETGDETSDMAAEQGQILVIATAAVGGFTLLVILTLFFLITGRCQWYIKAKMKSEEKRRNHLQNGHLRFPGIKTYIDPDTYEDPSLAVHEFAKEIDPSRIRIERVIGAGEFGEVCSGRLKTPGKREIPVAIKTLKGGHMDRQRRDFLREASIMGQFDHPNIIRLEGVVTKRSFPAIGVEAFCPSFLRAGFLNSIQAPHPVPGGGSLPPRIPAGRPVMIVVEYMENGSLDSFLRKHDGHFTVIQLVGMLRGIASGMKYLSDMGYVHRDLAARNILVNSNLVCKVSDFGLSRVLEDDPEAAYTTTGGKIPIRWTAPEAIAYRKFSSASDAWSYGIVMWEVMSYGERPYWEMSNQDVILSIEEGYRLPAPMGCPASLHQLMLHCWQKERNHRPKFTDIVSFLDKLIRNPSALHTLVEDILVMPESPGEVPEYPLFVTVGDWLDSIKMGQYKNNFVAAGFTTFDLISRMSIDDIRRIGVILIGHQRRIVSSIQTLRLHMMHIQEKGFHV

[12] = biological target: EPHA8 (Homo sapiens (Human), UniProt P29322); assay: KINOMEscan kinase selectivity profiling; format: binding; conditions: read-out: Ambit KINOMEscan of compound I-5 at 10 μM (percent control %)
[13] = biological target: EPHB1 (Homo sapiens (Human), UniProt P54762); assay: KINOMEscan kinase selectivity profiling; format: binding; conditions: read-out: Ambit KINOMEscan of compound I-5 at 10 μM (percent control %)
[14] = biological target: EPHB2 (Homo sapiens (Human), UniProt P29323); assay: KINOMEscan kinase selectivity profiling; format: binding; conditions: read-out: Ambit KINOMEscan of compound I-5 at 10 μM (percent control %)
[15] = biological target: EPHB4 (Homo sapiens (Human), UniProt P54760); assay: KINOMEscan kinase selectivity profiling; format: binding; conditions: read-out: Ambit KINOMEscan of compound I-5 at 10 μM (percent control %)
[16] = biological target: FES (Homo sapiens (Human), UniProt P07332); assay: KINOMEscan kinase selectivity profiling; format: binding; conditions: read-out: Ambit KINOMEscan of compound I-5 at 10 μM (percent control %)
[17] = biological target: FGR (Homo sapiens (Human), UniProt P09769); assay: KINOMEscan kinase selectivity profiling; format: binding; conditions: read-out: Ambit KINOMEscan of compound I-5 at 10 μM (percent control %)
Sequence of FGR (P09769 whole entry): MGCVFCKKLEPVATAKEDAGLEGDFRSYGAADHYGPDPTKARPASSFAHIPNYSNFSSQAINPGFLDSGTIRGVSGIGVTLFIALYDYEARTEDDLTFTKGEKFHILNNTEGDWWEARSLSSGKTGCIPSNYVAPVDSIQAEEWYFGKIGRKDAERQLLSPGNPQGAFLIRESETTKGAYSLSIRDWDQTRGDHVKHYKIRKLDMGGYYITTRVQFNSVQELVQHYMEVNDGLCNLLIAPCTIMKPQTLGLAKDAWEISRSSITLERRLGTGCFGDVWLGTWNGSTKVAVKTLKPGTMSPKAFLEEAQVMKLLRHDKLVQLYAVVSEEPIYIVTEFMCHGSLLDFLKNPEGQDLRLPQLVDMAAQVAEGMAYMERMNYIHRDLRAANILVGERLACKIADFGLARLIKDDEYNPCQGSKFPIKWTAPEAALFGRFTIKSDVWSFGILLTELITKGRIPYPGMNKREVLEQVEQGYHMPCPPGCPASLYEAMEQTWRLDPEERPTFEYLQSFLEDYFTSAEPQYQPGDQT

[18] = biological target: FLT4 (Homo sapiens (Human), UniProt P35916); assay: KINOMEscan kinase selectivity profiling; format: binding; conditions: read-out: Ambit KINOMEscan of compound I-5 at 10 μM (percent control %)
Sequence of FLT4 (P35916 25-1363): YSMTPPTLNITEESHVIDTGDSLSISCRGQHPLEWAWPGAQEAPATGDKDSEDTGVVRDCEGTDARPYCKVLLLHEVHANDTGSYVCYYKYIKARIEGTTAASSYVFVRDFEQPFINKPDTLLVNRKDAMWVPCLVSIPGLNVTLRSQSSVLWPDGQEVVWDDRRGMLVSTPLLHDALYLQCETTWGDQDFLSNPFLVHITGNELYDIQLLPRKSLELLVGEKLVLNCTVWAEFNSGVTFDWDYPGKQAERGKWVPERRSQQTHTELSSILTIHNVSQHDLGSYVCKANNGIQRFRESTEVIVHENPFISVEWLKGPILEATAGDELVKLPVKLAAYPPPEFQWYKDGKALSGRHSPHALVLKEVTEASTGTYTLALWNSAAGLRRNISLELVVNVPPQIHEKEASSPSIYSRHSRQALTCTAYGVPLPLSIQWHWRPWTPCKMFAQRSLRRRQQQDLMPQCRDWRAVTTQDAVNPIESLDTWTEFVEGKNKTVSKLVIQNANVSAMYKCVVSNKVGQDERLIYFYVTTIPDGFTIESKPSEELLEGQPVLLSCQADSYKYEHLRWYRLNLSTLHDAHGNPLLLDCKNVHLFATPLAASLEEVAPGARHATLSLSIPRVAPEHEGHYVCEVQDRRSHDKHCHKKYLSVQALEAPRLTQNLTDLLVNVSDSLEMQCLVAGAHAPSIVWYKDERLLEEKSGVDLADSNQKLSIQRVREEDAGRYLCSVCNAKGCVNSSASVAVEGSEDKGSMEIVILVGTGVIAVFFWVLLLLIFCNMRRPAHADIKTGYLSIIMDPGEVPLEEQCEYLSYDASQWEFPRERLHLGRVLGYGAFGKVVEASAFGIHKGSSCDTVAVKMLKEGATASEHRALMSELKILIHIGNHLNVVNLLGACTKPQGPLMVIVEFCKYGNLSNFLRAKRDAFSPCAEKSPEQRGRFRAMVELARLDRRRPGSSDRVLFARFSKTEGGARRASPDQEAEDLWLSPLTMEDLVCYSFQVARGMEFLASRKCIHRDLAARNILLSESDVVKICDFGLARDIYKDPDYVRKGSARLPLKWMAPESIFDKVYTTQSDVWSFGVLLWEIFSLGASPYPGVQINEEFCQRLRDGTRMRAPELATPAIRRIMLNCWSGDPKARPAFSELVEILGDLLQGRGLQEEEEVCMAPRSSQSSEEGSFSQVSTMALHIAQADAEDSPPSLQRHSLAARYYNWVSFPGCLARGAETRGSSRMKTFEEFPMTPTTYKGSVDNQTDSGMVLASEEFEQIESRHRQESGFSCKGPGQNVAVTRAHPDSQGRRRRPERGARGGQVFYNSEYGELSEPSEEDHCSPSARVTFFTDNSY

[19] = biological target: HPK1 (Homo sapiens (Human), UniProt Q92918); assay: KINOMEscan kinase selectivity profiling; format: binding; conditions: read-out: Ambit KINOMEscan of compound I-5 at 10 μM (percent control %)
[20] = biological target: INSRR (Homo sapiens (Human), UniProt P14616); assay: KINOMEscan kinase selectivity profiling; format: binding; conditions: read-out: Ambit KINOMEscan of compound I-5 at 10 μM (percent control %)
Sequence of INSRR (P14616 27-1297): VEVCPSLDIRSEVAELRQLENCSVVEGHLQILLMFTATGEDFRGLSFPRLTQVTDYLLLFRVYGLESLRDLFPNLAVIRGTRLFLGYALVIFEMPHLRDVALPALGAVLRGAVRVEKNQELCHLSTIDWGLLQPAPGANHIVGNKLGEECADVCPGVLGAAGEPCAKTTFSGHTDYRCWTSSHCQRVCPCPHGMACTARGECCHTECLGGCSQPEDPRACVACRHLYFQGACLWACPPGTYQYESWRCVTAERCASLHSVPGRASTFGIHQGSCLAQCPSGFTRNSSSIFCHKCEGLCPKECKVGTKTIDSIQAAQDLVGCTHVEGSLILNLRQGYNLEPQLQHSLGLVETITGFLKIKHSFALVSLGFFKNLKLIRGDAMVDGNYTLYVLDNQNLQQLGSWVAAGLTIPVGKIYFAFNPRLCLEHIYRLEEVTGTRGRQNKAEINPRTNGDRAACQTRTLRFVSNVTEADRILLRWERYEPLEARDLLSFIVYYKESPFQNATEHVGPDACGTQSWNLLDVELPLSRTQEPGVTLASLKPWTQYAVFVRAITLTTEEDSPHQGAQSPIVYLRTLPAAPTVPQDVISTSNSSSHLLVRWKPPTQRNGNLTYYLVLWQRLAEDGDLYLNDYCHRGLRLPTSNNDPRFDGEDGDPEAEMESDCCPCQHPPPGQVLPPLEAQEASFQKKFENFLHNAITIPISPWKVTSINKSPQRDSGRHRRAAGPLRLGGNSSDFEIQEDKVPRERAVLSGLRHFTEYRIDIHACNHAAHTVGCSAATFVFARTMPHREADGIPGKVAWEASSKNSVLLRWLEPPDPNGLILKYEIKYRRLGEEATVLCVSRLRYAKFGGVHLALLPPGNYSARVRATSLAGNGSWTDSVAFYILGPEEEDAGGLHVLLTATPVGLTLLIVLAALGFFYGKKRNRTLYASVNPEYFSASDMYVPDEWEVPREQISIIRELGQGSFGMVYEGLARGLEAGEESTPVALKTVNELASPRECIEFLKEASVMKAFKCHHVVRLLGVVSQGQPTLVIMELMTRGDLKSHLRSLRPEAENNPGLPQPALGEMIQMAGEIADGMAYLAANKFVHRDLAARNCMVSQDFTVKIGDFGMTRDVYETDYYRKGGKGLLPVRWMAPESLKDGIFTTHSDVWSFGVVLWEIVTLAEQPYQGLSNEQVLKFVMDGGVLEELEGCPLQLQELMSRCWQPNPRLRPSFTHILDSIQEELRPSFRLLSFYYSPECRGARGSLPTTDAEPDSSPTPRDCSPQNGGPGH

[21] = biological target: ITK (Homo sapiens (Human), UniProt Q08881); assay: KINOMEscan kinase selectivity profiling; format: binding; conditions: read-out: Ambit KINOMEscan of compound I-5 at 10 μM (percent control %)
[22] = biological target: KIT (Homo sapiens (Human), UniProt P10721); assay: KINOMEscan kinase selectivity profiling; format: binding; conditions: read-out: Ambit KINOMEscan of compound I-5 at 10 μM (percent control %)
[23] = biological target: KIT(L576P) (Homo sapiens (Human), UniProt P10721, L576P); assay: KINOMEscan kinase selectivity profiling; format: binding; conditions: read-out: Ambit KINOMEscan of compound I-5 at 10 μM (percent control %)
[24] = biological target: KIT(V559D) (Homo sapiens (Human), UniProt P10721, V559D); assay: KINOMEscan kinase selectivity profiling; format: binding; conditions: read-out: Ambit KINOMEscan of compound I-5 at 10 μM (percent control %)
[25] = biological target: LYN (Homo sapiens (Human), UniProt P07948); assay: KINOMEscan kinase selectivity profiling; format: binding; conditions: read-out: Ambit KINOMEscan of compound I-5 at 10 μM (percent control %)
[26] = biological target: MAP4K2 (Homo sapiens (Human), UniProt Q12851); assay: KINOMEscan kinase selectivity profiling; format: binding; conditions: read-out: Ambit KINOMEscan of compound I-5 at 10 μM (percent control %)
[27] = biological target: MERTK (Homo sapiens (Human), UniProt Q12866); assay: KINOMEscan kinase selectivity profiling; format: binding; conditions: read-out: Ambit KINOMEscan of compound I-5 at 10 μM (percent control %)
[28] = biological target: p38-delta (Homo sapiens (Human), UniProt O15264); assay: KINOMEscan kinase selectivity profiling; format: binding; conditions: read-out: Ambit KINOMEscan of compound I-5 at 10 μM (percent control %)
[29] = biological target: PDGFRA (Homo sapiens (Human), UniProt P16234); assay: KINOMEscan kinase selectivity profiling; format: binding; conditions: read-out: Ambit KINOMEscan of compound I-5 at 10 μM (percent control %)
[30] = biological target: PDGFRB (Homo sapiens (Human), UniProt P09619); assay: KINOMEscan kinase selectivity profiling; format: binding; conditions: read-out: Ambit KINOMEscan of compound I-5 at 10 μM (percent control %)
[31] = biological target: PFTAIRE2 (Homo sapiens (Human), UniProt Q96Q40); assay: KINOMEscan kinase selectivity profiling; format: binding; conditions: read-out: Ambit KINOMEscan of compound I-5 at 10 μM (percent control %)
[32] = biological target: PFTK1 (Homo sapiens (Human), UniProt O94921); assay: KINOMEscan kinase selectivity profiling; format: binding; conditions: read-out: Ambit KINOMEscan of compound I-5 at 10 μM (percent control %)
[33] = biological target: RAF1 (Homo sapiens (Human), UniProt P04049); assay: KINOMEscan kinase selectivity profiling; format: binding; conditions: read-out: Ambit KINOMEscan of compound I-5 at 10 μM (percent control %)
[34] = biological target: RET (Homo sapiens (Human), UniProt P07949); assay: KINOMEscan kinase selectivity profiling; format: binding; conditions: read-out: Ambit KINOMEscan of compound I-5 at 10 μM (percent control %)
[35] = biological target: RET(M918T) (Homo sapiens (Human), UniProt P07949, M918T); assay: KINOMEscan kinase selectivity profiling; format: binding; conditions: read-out: Ambit KINOMEscan of compound I-5 at 10 μM (percent control %)
[36] = biological target: RET(V804L) (Homo sapiens (Human), UniProt P07949, V804L); assay: KINOMEscan kinase selectivity profiling; format: binding; conditions: read-out: Ambit KINOMEscan of compound I-5 at 10 μM (percent control %)
[37] = biological target: RET(V804M) (Homo sapiens (Human), UniProt P07949, V804M); assay: KINOMEscan kinase selectivity profiling; format: binding; conditions: read-out: Ambit KINOMEscan of compound I-5 at 10 μM (percent control %)
[38] = biological target: RIPK1 (Homo sapiens (Human), UniProt Q13546); assay: KINOMEscan kinase selectivity profiling; format: binding; conditions: read-out: Ambit KINOMEscan of compound I-5 at 10 μM (percent control %)
[39] = biological target: SRC (Homo sapiens (Human), UniProt P12931); assay: KINOMEscan kinase selectivity profiling; format: binding; conditions: read-out: Ambit KINOMEscan of compound I-5 at 10 μM (percent control %)
[40] = biological target: TAK1 (Homo sapiens (Human), UniProt O43318); assay: KINOMEscan kinase selectivity profiling; format: binding; conditions: read-out: Ambit KINOMEscan of compound I-5 at 10 μM (percent control %)
[41] = biological target: TAOK3 (Homo sapiens (Human), UniProt Q9H2K8); assay: KINOMEscan kinase selectivity profiling; format: binding; conditions: read-out: Ambit KINOMEscan of compound I-5 at 10 μM (percent control %)
[42] = biological target: TIE1 (Homo sapiens (Human), UniProt P35590); assay: KINOMEscan kinase selectivity profiling; format: binding; conditions: read-out: Ambit KINOMEscan of compound I-5 at 10 μM (percent control %)
[43] = biological target: TIE2 (Homo sapiens (Human), UniProt Q02763); assay: KINOMEscan kinase selectivity profiling; format: binding; conditions: read-out: Ambit KINOMEscan of compound I-5 at 10 μM (percent control %)
[44] = biological target: TRKB (Homo sapiens (Human), UniProt Q16620); assay: KINOMEscan kinase selectivity profiling; format: binding; conditions: read-out: Ambit KINOMEscan of compound I-5 at 10 μM (percent control %)
[45] = biological target: TRKC (Homo sapiens (Human), UniProt Q16288); assay: KINOMEscan kinase selectivity profiling; format: binding; conditions: read-out: Ambit KINOMEscan of compound I-5 at 10 μM (percent control %)

**Q.** Which results are given for `CCN1CCN(Cc2cc(NC(=O)c3ccc(C)c(-c4ccc5nc(NC(=O)C6CC6)sc5n4)c3)cc(C(F)(F)F)c2)CC1` [Compound I-5]?
**A.** IC50 [1]: 0.66 µM; remaining binding at 10 µM [2]: 0%; remaining binding at 10 µM [3]: 0%; remaining binding at 10 µM [4]: 0%; remaining binding at 10 µM [5]: 0%; remaining binding at 10 µM [6]: 0%; remaining binding at 10 µM [7]: 0%; remaining binding at 10 µM [8]: 0%; remaining binding at 10 µM [9]: 0%; remaining binding at 10 µM [10]: 0%; remaining binding at 10 µM [11]: 0%; remaining binding at 10 µM [12]: 0%; remaining binding at 10 µM [13]: 0%; remaining binding at 10 µM [14]: 0%; remaining binding at 10 µM [15]: 0%; remaining binding at 10 µM [16]: 0%; remaining binding at 10 µM [17]: 0%; remaining binding at 10 µM [18]: 0%; remaining binding at 10 µM [19]: 0%; remaining binding at 10 µM [20]: 0%; remaining binding at 10 µM [21]: 0%; remaining binding at 10 µM [22]: 0%; remaining binding at 10 µM [23]: 0%; remaining binding at 10 µM [24]: 0%; remaining binding at 10 µM [25]: 0%; remaining binding at 10 µM [26]: 0%; remaining binding at 10 µM [27]: 0%; remaining binding at 10 µM [28]: 0%; remaining binding at 10 µM [29]: 0%; remaining binding at 10 µM [30]: 0%; remaining binding at 10 µM [31]: 0%; remaining binding at 10 µM [32]: 0%; remaining binding at 10 µM [33]: 0%; remaining binding at 10 µM [34]: 0%; remaining binding at 10 µM [35]: 0%; remaining binding at 10 µM [36]: 0%; remaining binding at 10 µM [37]: 0%; remaining binding at 10 µM [38]: 0%; remaining binding at 10 µM [39]: 0%; remaining binding at 10 µM [40]: 0%; remaining binding at 10 µM [41]: 0%; remaining binding at 10 µM [42]: 0%; remaining binding at 10 µM [43]: 0%; remaining binding at 10 µM [44]: 0%; remaining binding at 10 µM [45]: 0%
